Results from US20240315992A1, “AMINOXY ACID-BASED ANTIBACTERIAL COMPOUNDS AND METHODS THEREOF” (The University of Hong Kong, priority 2023, published 2024).
Values after ≈ are worked out from the molar mass of the structure shown.

test system: multidrug resistant Staphylococcus aureus Mu3; assay: MIC by CLSI broth micro-dilution, MRSA Mu3; format: cell-based; conditions: MRSA, CLSI broth micro-dilution, CAMH, read-out: Minimum inhibitory concentration (μM) in MRSA Mu3
Description: Aminoxy acids were synthesized by the standard peptide coupling procedures. Minimum inhibitory concentration was determined using CLSI broth micro-dilution method in 96-wells microtitre plates. Minimum inhibitory concentration is defined as the lowest concentration of the compound that inhibits visible growth of the bacteria. All experiments were performed three times. 24 compounds including aminoxy acid monomers and dipeptides have been identified to show toxicity against multidrug resistant Staphylococcus aureus Mu3 and summarized in Table 1. The minimum inhibitory concentration of compound 8 and compound 35 on other gram-positive bacteria was also evaluated and summarized in Table 2. […] As shown in FIGS. 3A-3B there are no observable hemolysis for compound 8 and compound 35 towards human red blood cell.
Bacteria were streaked from the glycerol stock into BHI agar and were incubated overnight. Single colony was picked for the overnight culture in cation-adjusted Mueller Hinton broth (CAMH), LB or BHI. The overnight culture was sub-cultured and regrew to exponential phase for the experiment.
MIC was determined by CLSI broth micro-dilution method in 96-wells microtitre plates. For compounds dissolved in water, 100 μL of 2× testing concentration was added to the first well of each column, followed by two-fold serial dilution for successive wells with 50 μL medium. For chemical compounds dissolved in DMSO, the compounds were two-fold serial diluted by DMSO in a DMSO-compatible 96-well plate. 1 μL of compound in DMSO was transferred into 96-wells microtitre plate containing 50 μL medium to give 2× testing concentration. An overnight culture of bacteria was grown into exponential phase. The bacteria culture was diluted to 1×10^6 CFU/mL and 50 μL of diluted culture were added into each well. The test plates were kept in a 37° C. incubator overnight. Optical density was recorded by DTX 880 multimode detector (Beckman Coulter, California, US). MIC is defined as the lowest concentration of the compound that inhibits visible growth of bacteria. Biological replicates were performed. CAMH was used for bacteria culture and MIC test except S. pneumoniae, L. monocytogenes, E. faecalis and M. smegmatis for which BHI was used as culture medium

| Compound | MIC [µM] |
| --- | --- |
| CC(C)(C)OC(=O)[C@@H](COCc1ccccc1)ONC(=O)[C@@H](COCc1ccccc1)ONC(=O)c1cc(C(F)(F)F)cc(C(F)(F)F)c1 [Compound 4] | > 12.5 |
| CC(C)C[C@H](ONC(=O)[C@H](COCc1ccccc1)ONC(=O)c1cc(C(F)(F)F)cc(C(F)(F)F)c1)C(=O)Nc1ccccc1 [Compound 6] | 3.13 (≈ 2.05 µg/mL) |
| CC(C)C[C@@H](ONC(=O)[C@H](COCc1ccccc1)ONC(=O)c1cc(C(F)(F)F)cc(C(F)(F)F)c1)C(=O)Nc1ccccc1 [Compound 7] | 3.13 (≈ 2.05 µg/mL) |
| Cc1ccc(S(=O)(=O)NO[C@H](COCc2ccccc2)C(=O)NO[C@@H](CC(C)C)C(=O)Nc2ccc3c(c2)OC(F)(F)O3)cc1 [Compound 53] | > 12.5 |
| CC(C)C[C@@H](ONC(=O)c1cc(C(F)(F)F)cc(C(F)(F)F)c1)C(=O)Nc1ccccc1 [Compound 3] | 3.13 (≈ 1.45 µg/mL) |
| O=C(CONC(=O)[C@@H](COCc1ccccc1)ONC(=O)c1cc(C(F)(F)F)cc(C(F)(F)F)c1)Nc1ccccc1 [Compound 16] | > 12.5 |
| CC(C)C[C@H](ONC(=O)[C@@H](COCc1ccccc1)ONC(=O)c1cc(C(F)(F)F)cc(C(F)(F)F)c1)C(=O)Nc1ccc(F)cc1 [Compound 36] | 3.13 (≈ 2.11 µg/mL) |
| O=C(NO[C@H](COCc1ccccc1)C(=O)NO[C@@H](Cc1ccccc1)C(=O)Nc1ccccc1)c1cc(C(F)(F)F)cc(C(F)(F)F)c1 [Compound 11] | 3.13 (≈ 2.16 µg/mL) |
| CC(C)C[C@H](ONC(=O)[C@@H](COCc1ccccc1)ONC(=O)c1cccc2cccnc12)C(=O)Nc1ccc2c(c1)OC(F)(F)O2 [Compound 49] | > 12.5 |
| CC(C)C[C@H](ONC(=O)[C@@H](COCc1ccccc1)ONC(=O)c1cc(C(F)(F)F)cc(C(F)(F)F)c1)C(=O)NC1CCCCC1 [Compound 22] | > 12.5 |
| O=C(NO[C@H](COCc1ccccc1)C(=O)Nc1ccccc1)c1cc(C(F)(F)F)cc(C(F)(F)F)c1 [Compound 2] | 6.25 (≈ 3.29 µg/mL) |
| CC(C)C[C@H](ONC(=O)[C@@H](COCc1ccccc1)ONC(=O)c1cc(C(F)(F)F)cc(C(F)(F)F)c1)C(=O)OC(C)(C)C [Compound 5] | > 12.5 |
| CC(C)C[C@H](ONC(=O)[C@@H](COCc1ccccc1)ONC(=O)c1cc(C(F)(F)F)cc(C(F)(F)F)c1)C(=O)N1CCOCC1 [Compound 32] | > 12.5 |
| C[C@@H](ONC(=O)[C@@H](COCc1ccccc1)ONC(=O)c1cc(C(F)(F)F)cc(C(F)(F)F)c1)C(=O)Nc1ccccc1 [Compound 17] | > 12.5 |
| CC(C)(C)OC(=O)C[C@@H](ONC(=O)[C@@H](COCc1ccccc1)ONC(=O)c1cc(C(F)(F)F)cc(C(F)(F)F)c1)C(=O)Nc1ccccc1 [Compound 14] | 3.13 (≈ 2.23 µg/mL) |
| COc1ccc(NC(=O)[C@H](CC(C)C)ONC(=O)[C@@H](COCc2ccccc2)ONC(=O)c2cc(C(F)(F)F)cc(C(F)(F)F)c2)cc1 [Compound 29] | 6.25 (≈ 4.29 µg/mL) |
| CC(C)C[C@H](ONC(=O)[C@@H](COCc1ccccc1)ONC(=O)c1cc(C(F)(F)F)cc(C(F)(F)F)c1)C(=O)NC12CC3CC(CC(C3)C1)C2 [Compound 26] | 6.25 (≈ 4.46 µg/mL) |
| Cc1noc(C)c1C(=O)NO[C@H](COCc1ccccc1)C(=O)NO[C@@H](CC(C)C)C(=O)Nc1ccc2c(c1)OC(F)(F)O2 [Compound 50] | > 12.5 |
| CC(C)C[C@H](ONC(=O)[C@@H](COCc1ccccc1)ONC(=O)c1ccc2ccccc2c1)C(=O)Nc1ccc2c(c1)OC(F)(F)O2 [Compound 46] | > 12.5 |
| CC(C)C[C@H](ONC(=O)[C@@H](COCc1ccccc1)ONC(=O)C(C)(C)C)C(=O)Nc1ccc2c(c1)OC(F)(F)O2 [Compound 42] | > 12.5 |
| CC(C)C[C@H](ONC(=O)[C@@H](COCc1ccccc1)ONC(=O)c1ccc[nH]1)C(=O)Nc1ccc2c(c1)OC(F)(F)O2 [Compound 51] | > 12.5 |
| Cc1cc(C)cc(NC(=O)[C@H](CC(C)C)ONC(=O)[C@@H](COCc2ccccc2)ONC(=O)c2cc(C(F)(F)F)cc(C(F)(F)F)c2)c1 [Compound 31] | 3.13 (≈ 2.14 µg/mL) |
| CC(C)C[C@H](ONC(=O)[C@@H](COCc1ccccc1)ONC(=O)C12CC3CC(CC(C3)C1)C2)C(=O)Nc1ccc2c(c1)OC(F)(F)O2 [Compound 43] | > 12.5 |
| CC(C)C[C@H](ONC(=O)[C@@H](COCc1ccccc1)ONC(=O)c1cc(C(F)(F)F)cc(C(F)(F)F)c1)C(=O)Nc1nccs1 [Compound 21] | > 12.5 |
| CC(C)C[C@H](ONC(=O)[C@@H](COCc1ccccc1)ONS(=O)(=O)c1ccc(C(F)(F)F)cc1)C(=O)Nc1ccc2c(c1)OC(F)(F)O2 [Compound 54] | > 12.5 |

| Compound | MIC [µM] |
| --- | --- |
| CC(C)C[C@@H](ONC(=O)[C@@H](COCc1ccccc1)ONC(=O)c1cc(C(F)(F)F)cc(C(F)(F)F)c1)C(=O)Nc1ccccc1 [Compound 9] | 3.13 (≈ 2.05 µg/mL) |
| CC(C)C[C@H](ONC(=O)[C@@H](COCc1ccccc1)NC(=O)c1cc(C(F)(F)F)cc(C(F)(F)F)c1)C(=O)Nc1ccccc1 [Compound 57] | > 12.5 |
| CC(C)C[C@H](ONC(=O)[C@@H](COCc1ccccc1)ONC(=O)c1cc(C(F)(F)F)cc(C(F)(F)F)c1)C(=O)Nc1ccc2c(c1)OCO2 [Compound 34] | 6.25 (≈ 4.37 µg/mL) |
| CC(C)C[C@H](ONC(=O)[C@@H](COCc1ccccc1)ONC(=O)c1cc(C(F)(F)F)cc(C(F)(F)F)c1)C(=O)NOCc1ccccc1 [Compound 40] | > 12.5 |
| CC(C)C[C@H](ONC(=O)[C@@H](COCc1ccccc1)ONC(=O)c1ccc2c(c1)OC(F)(F)O2)C(=O)Nc1ccc2c(c1)OC(F)(F)O2 [Compound 52] | 3.13 (≈ 2.13 µg/mL) |
| CC(C)CNC(=O)[C@H](CC(C)C)ONC(=O)[C@@H](COCc1ccccc1)ONC(=O)c1cc(C(F)(F)F)cc(C(F)(F)F)c1 [Compound 24] | > 12.5 |
| CC(C)(C)OC(=O)NCCCC[C@@H](ONC(=O)[C@@H](COCc1ccccc1)ONC(=O)c1cc(C(F)(F)F)cc(C(F)(F)F)c1)C(=O)Nc1ccccc1 [Compound 19] | 12.5 (≈ 9.63 µg/mL) |
| CC(C)C[C@H](ONC(=O)[C@@H](COCc1ccccc1)ONC(=O)c1cc(C(F)(F)F)cc(C(F)(F)F)c1)C(=O)Nc1cncnc1 [Compound 27] | > 12.5 |
| O=C(O)C[C@@H](ONC(=O)[C@@H](COCc1ccccc1)ONC(=O)c1cc(C(F)(F)F)cc(C(F)(F)F)c1)C(=O)Nc1ccccc1 [Compound 18] | > 12.5 |
| CC(C)C[C@H](ONC(=O)[C@@H](COCc1ccccc1)ONC(=O)c1ccc(F)cc1)C(=O)Nc1ccc2c(c1)OC(F)(F)O2 [Compound 47] | > 12.5 |
| CC(C)C[C@H](ONC(=O)[C@@H](COCc1ccccc1)ONC(=O)c1cc(C(F)(F)F)cc(C(F)(F)F)c1)C(=O)Nc1ccc2ccccc2c1 [Compound 39] | 1.56 (≈ 1.1 µg/mL) |
| O=C(NO[C@H](COCc1ccccc1)C(=O)NO[C@H](CO)C(=O)Nc1ccccc1)c1cc(C(F)(F)F)cc(C(F)(F)F)c1 [Compound 15] | > 12.5 |
| Cc1cc(C)cc(C(=O)NO[C@H](COCc2ccccc2)C(=O)NO[C@@H](CC(C)C)C(=O)Nc2ccc3c(c2)OC(F)(F)O3)c1 [Compound 45] | > 12.5 |
| CC(C)C[C@H](ONC(=O)[C@@H](COCc1ccccc1)ONC(=O)c1cc(C(F)(F)F)cc(C(F)(F)F)c1)C(=O)Nc1ccc2cc[nH]c2c1 [Compound 23] | > 12.5 |
| CC(C)C[C@H](ONC(=O)[C@@H](COCc1ccccc1)ONC(=O)c1cc(C(F)(F)F)cc(C(F)(F)F)c1)C(=O)Nc1ccc(C#N)cc1 [Compound 37] | 6.25 (≈ 4.25 µg/mL) |
| CC(C)C[C@H](ONC(=O)[C@@H](COCc1ccccc1)ONC(=O)c1cc(C(F)(F)F)cc(C(F)(F)F)c1)C(=O)Nc1ccc(C(F)(F)F)cc1 [Compound 38] | 1.56 (≈ 1.13 µg/mL) |
| CC(C)(C)OC(=O)[C@@H](COCc1ccccc1)ONC(=O)c1cc(C(F)(F)F)cc(C(F)(F)F)c1 [Compound 1] | 12.5 (≈ 6.34 µg/mL) |
| CC(C)C[C@H](ONC(=O)[C@@H](COCc1ccccc1)ONC(=O)c1cc(C(F)(F)F)cc(C(F)(F)F)c1)C(=O)Nc1ccc(N2CCOCC2)cc1 [Compound 33] | > 12.5 |
| CC(C)C[C@H](ONC(=O)[C@@H](COCc1ccccc1)ONC(=O)c1cc(C(F)(F)F)cc(C(F)(F)F)c1)C(=O)Nc1cccc2cc[nH]c12 [Compound 25] | 6.25 (≈ 4.34 µg/mL) |
| CC(C)C[C@H](ONC(=O)[C@@H](COCc1ccccc1)ONC(=O)c1ccccc1)C(=O)Nc1ccc2c(c1)OC(F)(F)O2 [Compound 44] | > 12.5 |
| CC(C)C[C@H](ONC(=O)[C@@H](COCc1ccccc1)ONC(=O)c1cc(C(F)(F)F)cc(C(F)(F)F)c1)C(=O)NOc1ccccc1 [Compound 41] | > 12.5 |
| O=C(NO[C@H](COCc1ccccc1)C(=O)NO[C@H](Cc1c[nH]c2ccccc12)C(=O)Nc1ccccc1)c1cc(C(F)(F)F)cc(C(F)(F)F)c1 [Compound 10] | 6.25 (≈ 4.55 µg/mL) |
| CC(C)C[C@H](ONC(=O)[C@@H](COCc1ccccc1)ONC(=O)c1c(F)cccc1F)C(=O)Nc1ccc2c(c1)OC(F)(F)O2 [Compound 48] | > 12.5 |
| O=C(NO[C@H](COCc1ccccc1)C(=O)NO[C@H](COCc1ccccc1)C(=O)Nc1ccccc1)c1cc(C(F)(F)F)cc(C(F)(F)F)c1 [Compound 12] | 3.13 (≈ 2.25 µg/mL) |
| CC(C)(C)OC[C@@H](ONC(=O)[C@@H](COCc1ccccc1)ONC(=O)c1cc(C(F)(F)F)cc(C(F)(F)F)c1)C(=O)Nc1ccccc1 [Compound 13] | 6.25 (≈ 4.29 µg/mL) |
